Results as given in article PMC5802399 (Nature, 2017).
Like-named read-outs stand apart in the source and are kept apart here. Bridge positions count the residues as written; N and C are the ends. Ends that are not written are not given here. Peptide text beside a SMILES is read from it.

Tests used:
[1] = type: physicochemical; conditions: pH 7.4
[2] = type: physicochemical; conditions: pH 7.4; remark: listed apart in the source
[3] = system: CA09 influenza virus (H1N1); type: cell-based, Influenza A H1N1
PR8 influenza virus = type: cell-based, Influenza A H1N1
[4] = system: group-1 influenza strains (H1N1, H5N1 and H6N2); type: cell-based, Influenza A
HK/X31 (H3N2), group 2 = type: cell-based, Influenza A
H1N1 CA09 virus [5] = system: H1N1 CA09 virus; design: species or system BALB/c mice; conditions: mouse, in vivo
H1N1 CA09 virus [6] = system: H1N1 CA09 virus; design: species or system BALB/c mice; conditions: mouse, in vivo; remark: listed apart in the source

CC[C@H](C)[C@@H]1NC(=O)[C@H](CCC(=O)O)NC(=O)[C@H](C)NC(=O)[C@H](C)NC(=O)[C@H]([C@@H](C)O)NC(=O)[C@H](CCC(N)=O)NC(=O)[C@@H]2CSSC[C@H](NC(=O)[C@H](CC(N)=O)NC(=O)CNC(=O)[C@H](CC(N)=O)NC(=O)[C@H](CC(=O)O)NC(=O)[C@H](C(C)C)NC(=O)[C@H](CCSC)NC(=O)[C@H]([C@@H](C)CC)NC(=O)[C@H](CCCCN)NC(=O)[C@H](C(C)C)NC(=O)[C@H]([C@@H](C)O)NC(=O)[C@H](Cc3ccc(O)cc3)NC(=O)CNC(=O)[C@H](Cc3ccccc3)NC(=O)[C@H](C)NC(=O)[C@H](CCCNC(=N)N)NC(=O)[C@H](Cc3c[nH]c4ccccc34)NC1=O)C(=O)N[C@@H](CCCNC(=N)N)C(=O)N[C@@H](CC(C)C)C(=O)N[C@@H](Cc1c[nH]cn1)C(=O)N[C@@H](C(C)C)C(=O)N[C@H](C(=O)O)CSSC[C@H](N)C(=O)N[C@@H]([C@@H](C)CC)C(=O)N[C@@H](CCC(=O)O)C(=O)N[C@@H](CCC(N)=O)C(=O)N[C@@H](CO)C(=O)N[C@@H](Cc1ccccc1)C(=O)N[C@@H]([C@@H](C)O)C(=O)N[C@@H]([C@@H](C)O)C(=O)N[C@@H](CC(C)C)C(=O)N[C@@H](Cc1ccccc1)C(=O)N[C@@H](C)C(=O)N2 [HB1.6928.2.3] (H-CIEQSFTTLFACQTAAEIWRAFGYTVKIMVDNGNCRLHVC-OH; disulfide 1-40, 12-35; N-terminus and C-terminus assumed)
Tm [1]: >95 °C | reduction of binding activity after incubation at 80 °C [2]: no detectable loss of binding | EC50 for Cal09 (CA09), fold lower than FI6v3 or HB36.6 [3]: more than 100 fold | neutralization of CA09 virus [3]: strongly neutralized | neutralization of PR8 virus (PR8 influenza virus): strongly neutralized | efficiency (EC50) in inhibiting infection, compared with HB36.6 and FI6v3 [4]: most efficiently inhibited infection | neutralization of H3N2 (HK/X31 (H3N2), group 2): no neutralization | protection after intravenous administration (H1N1 CA09 virus [5]): little protection | protection after repeated administration compared with no prior dosing (H1N1 CA09 virus [5]): remains equally protective | survival (H1N1 CA09 virus [5]): 100% | survival (H1N1 CA09 virus [6]): 100% | weight loss (H1N1 CA09 virus [6]): less than 10%

HB1.5702.3: chemically synthesized HA binder (TSGVRATSKFAALIAAEIAREFGYTVDVQEKNGEWRVVFD)
trypsin concentration above which gel bands weaken (proteolytic degradation) (trypsin): > 2.86 µM

HB1.6394.2: chemically synthesized HA binder containing disulfides (CQEYRFTNPFACQIALEILRDFGYACTVQTINGECRVRCC; disulfide (positions not given here))
degradation by trypsin (trypsin): no degradation

HB1.6928.2: chemically synthesized HA binder containing disulfides (CIEQSFTTLFACQTAAEIWRAFGYTVKIMVDNGNCRLHVC; disulfide (positions not given here))
degradation by trypsin (trypsin): no degradation

TMTSITTSPFAAEIAARIWAEFGYTVRIETRGKTVHVTVD [HB1.6811.3]
Tm [1]: 70 °C

TSGVRATSKFAALIAAEIAREFGYTVDVQEKNGEWRVVFD [HB1.5702.3.3]
Tm [1]: 70 °C

TSRVRATSKFAALIAAEIAREFGYTVDVQEVNGQWEVTFD [HB1.5702.2]
Tm [1]: 72 °C
